# Experimental data from ChEMBL document CHEMBL5150035, “Mechanism-based inhibition of GH127/146 cysteine glycosidases by stereospecifically functionalized l-arabinofuranosides” (Bioorg Med Chem, 2022).
# The source made the active and inactive calls. The rule behind the calls is not given here.
# Tests used:
# [1] = Drug metabolism assessed as hydrolysed metabolite formation at 10 mM incubated for 24 hrs in presence of TCEP by TLC analysis; assay type: ADME; conditions: 10000 µM
# Bifidobacterium longum [2] = assay: Inhibition of Bifidobacterium longum JCM 1217 HypBA1 homologue BLLJ_1848 using S3 as substrate preincubated with enzyme followed by substrate addition for 30 mins in absence of TCEP by HPLC-FLD analysis
# [3] = Substrate activity at Bifidobacterium longum JCM 1217 HypBA1 homologue BLLJ_1848 at 10 mM incubated for 24 hrs in presence of TCEP by TLC analysis; assay type: ADME; conditions: 10000 µM
# Bifidobacterium longum [4] = assay: Inhibition of Bifidobacterium longum JCM 1217 HypBA1 homologue BLLJ_1848 using S3 as substrate preincubated with enzyme followed by substrate addition for 30 mins in presence of TCEP by HPLC-FLD analysis
# [5] = Substrate activity at Bifidobacterium longum JCM 1217 HypBA1 homologue BLLJ_1848 at 10 mM incubated for 24 hrs in absence of TCEP by TLC analysis; assay type: ADME; conditions: 10000 µM
# [6] = target: T1, Non-reducing end beta-L-arabinofuranosidase (Bifidobacterium longum subsp. longum) (UniProt E8MGH8); assay: Inhibition of C-terminal-His6-tagged Bifidobacterium longum HypBA1 expressed in Escherichia coli C43 (DE3) cells […] using L-Araf3-Hyp as substrate preincubated with enzyme for 2 hrs followed by substrate addition and measured after 24 hrs by spectrophotometric analysis; conditions: time 26.0 hrs
# T1 sequence (whole entry): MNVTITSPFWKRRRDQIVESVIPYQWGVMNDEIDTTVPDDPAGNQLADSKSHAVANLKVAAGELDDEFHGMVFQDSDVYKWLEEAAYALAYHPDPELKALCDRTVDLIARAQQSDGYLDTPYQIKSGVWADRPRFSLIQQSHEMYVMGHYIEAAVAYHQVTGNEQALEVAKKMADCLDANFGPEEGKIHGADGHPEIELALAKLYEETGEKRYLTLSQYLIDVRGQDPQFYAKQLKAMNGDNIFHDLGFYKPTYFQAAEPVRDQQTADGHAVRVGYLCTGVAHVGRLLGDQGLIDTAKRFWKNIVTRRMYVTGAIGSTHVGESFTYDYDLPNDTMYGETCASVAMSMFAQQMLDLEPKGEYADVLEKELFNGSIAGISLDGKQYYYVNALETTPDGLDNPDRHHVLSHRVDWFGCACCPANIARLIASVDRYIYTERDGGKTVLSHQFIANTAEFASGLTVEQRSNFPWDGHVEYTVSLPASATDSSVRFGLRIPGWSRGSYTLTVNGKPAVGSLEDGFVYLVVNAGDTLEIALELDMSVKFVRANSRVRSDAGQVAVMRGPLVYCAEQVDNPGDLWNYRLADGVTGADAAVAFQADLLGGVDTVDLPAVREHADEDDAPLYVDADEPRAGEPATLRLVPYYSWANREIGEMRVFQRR
# [7] = target: T1, Non-reducing end beta-L-arabinofuranosidase (Bifidobacterium longum subsp. longum); assay: Inhibition of C-terminal-His6-tagged Bifidobacterium longum HypBA1 expressed in Escherichia coli C43 (DE3) cells assessed as reduction in pNP liberation using pNP-beta-L-Araf as substrate at 0.1 to 1 mM preincubated with enzyme for 2 hrs followed by substrate addition and measured after 24 hrs by spectrophotometric analysis; conditions: dose 0.1-1 mM, time 26.0 hrs
SMILES,Drug metabolism [1],Activity [3],inhibition [6],inhibition [7],also measured
[N-]=[N+]=N[C@@H]1O[C@@H](CO)[C@H](O)[C@H]1O,Metabolite_Detected,Active,,,inhibition (Bifidobacterium longum [2]): Active; inhibition (Bifidobacterium longum [4]): Active
[N-]=[N+]=N[C@H]1O[C@@H](CO)[C@H](O)[C@H]1O,Metabolite_Detected,Active,,,Activity [5]: Active
O=C(CCl)N[C@H]1O[C@@H](CO)[C@H](O)[C@H]1O,,,Active,,
O=C(CBr)N[C@@H]1O[C@@H](CO)[C@H](O)[C@H]1O,,,,Active,
O=C(CBr)N[C@H]1O[C@@H](CO)[C@H](O)[C@H]1O,,,,Active,
O=C(CCl)N[C@@H]1O[C@@H](CO)[C@H](O)[C@H]1O,,,Active,,
